Measurements taken from US20230295162A1 (EÖTVÖS LORÁND TUDOMÁNYEGYETEM, priority 2020, published 2023).
Read-outs that look alike come from different tables or passages of the source.

How the values were obtained:
EBC-1 cell line = assay: Additional in vitro IC50 tests (Table 3); assay type: cell-based; details: Homo sapiens
How it was run: (§1)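 Cells at 1000/well, viability by CellTiter-Glo luminescence after compound treatment, as % of untreated control. IC50 from variable-slope log(inhibitor) vs response nonlinear regression.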

SCC-25 cell line = assay: Additional in vitro IC50 tests (Table 3); assay type: cell-based; details: Homo sapiens
How it was run: as §1

Fadu cell line = assay: Additional in vitro IC50 tests (Table 3); assay type: cell-based; details: Homo sapiens
How it was run: as §1

Detroit 562 cell line = assay: Additional in vitro IC50 tests (Table 3); assay type: cell-based; details: Homo sapiens
How it was run: as §1

H2228 cell line = assay: Additional in vitro IC50 tests (Table 3); assay type: cell-based; details: Homo sapiens, NCI-H2228
How it was run: as §1

Panc-1 human cell line = assay: Cytotoxicity on Panc-1, xCELLigence SP, IC50 after 24 h, 48 h, 72 h and 96 h (Example 22)
[1] = test system: Capan-1 (pancreas, adenocarcinoma) cells; assay: Cell viability assay, CellTiter-Glo (Example 21); assay type: cell-based, human; details: 72 h treatment
How it was run: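 Viability of Capan-1 pancreatic adenocarcinoma cells was assessed using Promega's CellTiter-Glo® luminescence kit. Cells were plated at 1000 cells/well in white, flat-bottom 96 well plates, treated, then luminescence was recorded on a BioTek Synergy 2 reader. Dose-response curves were fitted in GraphPad Prism 8.4.2 with a four-parameter variable-slope non-linear regression.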

[2] = test system: MDA-MB-453 (breast, carcinoma) cells; assay: Cell viability assay, CellTiter-Glo (Example 21); assay type: cell-based, human; details: 72 h treatment
How it was run: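 Cells were seeded at optimized densities (Panc-1 750, FaDu 1000, Detroit 562 and MDA-MB-453 1500 cells/well), then treated with compound. Viability was read by CellTiter-Glo luminescence. Dose-response curves were fitted by four-parameter variable-slope non-linear regression.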

[3] = test system: MIA PaCa-2 (pancreas, carcinoma) cells; assay: Cell viability assay, CellTiter-Glo (Example 21); assay type: cell-based, human; details: 72 h treatment
How it was run: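 Cell viability of MIA PaCa-2 cells was assessed by CellTiter-Glo® luminescence (Promega, Madison, WI, USA). Cells were plated at 1000 cells/well, a density chosen for their size and growth rate, in white flat-bottomed 96 well plates. After treatment, the signal was recorded on a BioTek microplate reader, and dose-response curves were fitted in GraphPad Prism 8.4.2 with a four-parameter variable-slope non-linear regression.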

[4] = test system: MDA-MB-231 (breast, adenocarcinoma) cells; assay: Cell viability assay, CellTiter-Glo (Example 21); assay type: cell-based, human; details: 72 h treatment
How it was run: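 Viability of MDA-MB-231 cells was quantified by luminescence using Promega's CellTiter-Glo® kit per manufacturer instructions. Cells, plated at a size- and growth-optimized density of 1500 cells/well in white flat-bottom 96 well plates, were treated and then read on a BioTek Synergy 2 reader; dose-response curves used four-parameter variable-slope non-linear regression in GraphPad Prism 8.4.2.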

[5] = test system: DU 145 (prostate, carcinoma) cells; assay: Cell viability assay, CellTiter-Glo (Example 21); assay type: cell-based, human; details: 72 h
How it was run: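 DU 145 prostate carcinoma cells were plated at 1000 cells/well in white flat-bottom 96 well plates and exposed to compound. Viability was then determined by CellTiter-Glo® luminescence on a BioTek Synergy 2 reader, and dose-response curves were fitted in GraphPad Prism 8.4.2 with a four-parameter variable-slope non-linear regression.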

[6] = test system: PC-3 (prostate, adenocarcinoma) cells; assay: Cell viability assay, CellTiter-Glo (Example 21); assay type: cell-based, human; details: 72 h treatment
How it was run: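 Cancer cell viability was assessed by luminescence using Promega's CellTiter-Glo® kit. PC-3 cells, plated at a density of 1000 cells/well in white flat-bottom 96 well plates, were exposed to test compounds, after which signals were measured on a microplate reader and dose-response curves fitted by four-parameter variable-slope non-linear regression in GraphPad Prism 8.4.2.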

[7] = test system: SCC-25 (tongue, squamous cell carcinoma) cells; assay: Cell viability assay, CellTiter-Glo (Example 21); assay type: cell-based, human; details: 72 h treatment
How it was run: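 Cell viability of SCC-25 cells was assessed by CellTiter-Glo luminescence after compound exposure. Cells were plated at 1000 cells/well, a density chosen for their size and growth rate, on white flat-bottom 96 well plates. Signal was recorded on a microplate reader, and dose-response curves were fitted in GraphPad Prism by four-parameter variable-slope non-linear regression.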

[8] = test system: Panc1 pancreatic cancer cell line; assay: CellTiter-Glo IC50 (Example 19); assay type: cell-based; details: Homo sapiens, PANC-1, 72 h
How it was run: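 Following treatment of 1000-cell/well cultures at 37° C, 5% CO2, CellTiter-Glo replaced the medium and luminescence was recorded. Data normalised to untreated controls; IC50 by variable-slope regression.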

[9] = test system: EBC-1 lung cancer cell line; assay: High-throughput screening, CellTiter-Glo cell viability assay at 100 nM; assay type: cell-based, human; details: Homo sapiens, EBC-1, HTS, compounds at 100 nM, 72 h, read-out: cytotoxicity expressed in IC50, EBC-1 (results of High throughput screening)
[10] = test system: H2228 lung cancer cell line; assay: as above; assay type: cell-based, human; details: Homo sapiens, NCI-H2228, HTS, compounds at 100 nM, 72 h, read-out: cytotoxicity expressed in IC50, H2228 (results of High throughput screening)

[N-]=[N+]=Nc1cccc(CN2CCC3=C(C2)C(=O)N(Cc2ccc(C(F)(F)F)cc2)C2=NCCN23)c1 [I/111, 7-(3-Azidobenzyl)-4-(4-(trifluoromethyl)benzyl)-2,4,6,7,8,9-hexahydroimidazo[1,2-a]pyrido[3,4-e]pyrimidin-5(1H)-one]
IC50 (EBC-1 cell line): 8 nM | IC50 (SCC-25 cell line): 15 nM | IC50 (Fadu cell line): 11 nM | IC50 (Detroit 562 cell line): 3 nM | IC50 (H2228 cell line): 13 nM | IC50 (Panc-1 human cell line; PANC-1, 72 h, read-out: IC50 (72 h) [nM]): 20.1 ± 1.68 nM | IC50 (Panc-1 human cell line; PANC-1, 96 h, read-out: IC50 (96 h) [nM]): 8.58 ± 0.256 nM | Capan-1 (pancreas, adenocarcinoma) cell viability (% of control) ([1]; 3.7 nM): 102.5 ± 4.0 % of control | Capan-1 (pancreas, adenocarcinoma) cell viability (% of control) ([1]; 11.1 nM): 95.1 ± 8.2 % of control | Capan-1 (pancreas, adenocarcinoma) cell viability (% of control) ([1]; 100 nM): 31.7 ± 1.7 % of control | Capan-1 (pancreas, adenocarcinoma) cell viability (% of control) ([1]; 300 nM): 30.8 ± 3.3 % of control | MDA-MB-453 (breast, carcinoma) cell viability (% of control) ([2]; 3.7 nM): 107.2 ± 5.9 % of control | MDA-MB-453 (breast, carcinoma) cell viability (% of control) ([2]; 11.1 nM): 45.7 ± 5.0 % of control | MDA-MB-453 (breast, carcinoma) cell viability (% of control) ([2]; 100 nM): 30.3 ± 1.0 % of control | MDA-MB-453 (breast, carcinoma) cell viability (% of control) ([2]; 300 nM): 28.8 ± 0.4 % of control | MIA PaCa-2 (pancreas, carcinoma) cell viability (% of control) ([3]; 3.7 nM): 100.2 ± 8.8 % of control | MIA PaCa-2 (pancreas, carcinoma) cell viability (% of control) ([3]; 11.1 nM): 90.6 ± 19.3 % of control | MIA PaCa-2 (pancreas, carcinoma) cell viability (% of control) ([3]; 100 nM): 16.5 ± 6.7 % of control | MIA PaCa-2 (pancreas, carcinoma) cell viability (% of control) ([3]; 300 nM): 16.2 ± 6.9 % of control | MDA-MB-231 (breast, adenocarcinoma) cell viability (% of control) ([4]; 3.7 nM): 102.7 ± 2.8 % of control | MDA-MB-231 (breast, adenocarcinoma) cell viability (% of control) ([4]; 11.1 nM): 98.5 ± 2.1 % of control | MDA-MB-231 (breast, adenocarcinoma) cell viability (% of control) ([4]; 100 nM): 56.9 ± 2.2 % of control | MDA-MB-231 (breast, adenocarcinoma) cell viability (% of control) ([4]; 300 nM): 52.8 ± 2.7 % of control | DU 145 cell viability ([5]; 3.7 nM): 93.6 ± 6.9 % of control | DU 145 cell viability ([5]; 11.1 nM): 33.8 ± 5.0 % of control | DU 145 cell viability ([5]; 100 nM): 7.1 ± 2.0 % of control | DU 145 cell viability ([5]; 300 nM): 8.1 ± 1.9 % of control | PC-3 (prostate, adenocarcinoma) cell viability (% of control) ([6]; 3.7 nM): 106.8 ± 2.4 % of control | PC-3 (prostate, adenocarcinoma) cell viability (% of control) ([6]; 11.1 nM): 75.5 ± 5.9 % of control | PC-3 (prostate, adenocarcinoma) cell viability (% of control) ([6]; 100 nM): 32.0 ± 3.2 % of control | PC-3 (prostate, adenocarcinoma) cell viability (% of control) ([6]; 300 nM): 31.3 ± 3.0 % of control | SCC-25 (tongue, squamous cell carcinoma) cell viability (% of control) ([7]; 3.7 nM): 98.3 ± 4.0 % of control | SCC-25 (tongue, squamous cell carcinoma) cell viability (% of control) ([7]; 11.1 nM): 79.0 ± 11.0 % of control | SCC-25 (tongue, squamous cell carcinoma) cell viability (% of control) ([7]; 100 nM): 32.5 ± 1.2 % of control | SCC-25 (tongue, squamous cell carcinoma) cell viability (% of control) ([7]; 300 nM): 36.4 ± 0.9 % of control | IC50 [8]: 9 nM | IC50 [9]: < 100 nM | IC50 [10]: < 100 nM
